In brackets after ≈: the same amount, converted by molar mass. Blank lines part the entries; values can stand above or below the compound they belong to.
Experiments:
[1] = Human plasma protein binding (equilibrium dialysis); assay type: in vitro ADME; conditions: dialysis 18 hours
physchem = conditions: 1-octanol/aqueous buffer, pH 7.4
[2] = biological target: Estrogen Receptor (ERα) in MCF-7 cells (Homo sapiens (Human), UniProt P03372); assay: MCF-7 ER down-regulation assay (immuno-fluorescence); assay type: cell-based; conditions: for % downregulation: shown in brackets where not >90%
Chain of Estrogen Receptor (ERα) in MCF-7 cells (P03372 whole entry): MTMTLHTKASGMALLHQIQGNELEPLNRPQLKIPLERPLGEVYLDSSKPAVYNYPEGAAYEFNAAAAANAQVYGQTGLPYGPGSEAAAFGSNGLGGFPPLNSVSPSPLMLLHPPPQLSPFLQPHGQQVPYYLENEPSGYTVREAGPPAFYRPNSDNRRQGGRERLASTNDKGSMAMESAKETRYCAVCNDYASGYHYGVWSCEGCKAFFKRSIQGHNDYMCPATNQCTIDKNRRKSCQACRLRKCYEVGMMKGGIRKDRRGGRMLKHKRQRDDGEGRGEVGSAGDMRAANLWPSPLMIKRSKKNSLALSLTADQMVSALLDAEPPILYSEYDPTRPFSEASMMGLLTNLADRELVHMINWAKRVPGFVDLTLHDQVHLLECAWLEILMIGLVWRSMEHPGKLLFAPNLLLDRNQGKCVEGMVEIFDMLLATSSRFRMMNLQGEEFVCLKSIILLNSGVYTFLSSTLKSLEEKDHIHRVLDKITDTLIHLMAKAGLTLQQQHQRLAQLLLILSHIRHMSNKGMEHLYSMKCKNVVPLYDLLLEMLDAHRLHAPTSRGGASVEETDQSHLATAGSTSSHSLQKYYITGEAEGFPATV

[3] = Thermodynamic solubility (shake flask); assay type: physicochemical; conditions: aqueous phosphate buffer, 25 °C, pH 7.4, aqueous buffer, thermodynamic from solid, aqueous phosphate buffer pH 7.4, 24 hours

Structure (SMILES): C[C@H](COc1ccc([C@@H]2c3[nH]c4ccccc4c3C[C@@H](C)N2CC2(F)COC2)cc1)NCCCF [Example 28, 3-fluoro-N-((R)-1-(4-((1R,3R)-2-((3-fluorooxetan-3-yl)methyl)-3-methyl-2,3,4,9-tetrahydro-1H-pyrido[3,4-b]indol-1-yl)phenoxy)propan-2-yl)propan-1-amine]
Human plasma protein binding (% free) [1]: 2.7 % free
logD (physchem): 2.9
IC50 ([2]; 18-22 hours incubation): 11 nM
% downregulation [2]: (48%)
solubility at 24 h [3]: 354 µM (≈ 171 µg/mL)

Structure (SMILES): C[C@@H]1Cc2c([nH]c3ccccc23)[C@@H](c2ccc(OCCNCCCF)cn2)N1CC1(F)CC1 [Example 31, 3-fluoro-N-(2-((6-((1S,3R)-2-((1-fluorocyclopropyl)methyl)-3-methyl-2,3,4,9-tetrahydro-1H-pyrido[3,4-b]indol-1-yl)pyridin-3-yl)oxy)ethyl)propan-1-amine]
Human plasma protein binding (% free) [1]: 5.3 % free
logD (physchem): 2.7
IC50 ([2]; 18-22 hours incubation): 22 nM
% downregulation [2]: (89%)
solubility at 24 h [3]: 554 µM (≈ 252 µg/mL)

Structure (SMILES): C[C@@H]1Cc2c([nH]c3ccccc23)[C@@H](c2ccc(OCCNCCCF)cn2)N1CC1(F)COC1 [Example 32, 3-fluoro-N-(2-((6-((1S,3R)-2-((3-fluorooxetan-3-yl)methyl)-3-methyl-2,3,4,9-tetrahydro-1H-pyrido[3,4-b]indol-1-yl)pyridin-3-yl)oxy)ethyl)propan-1-amine]
Human plasma protein binding (% free) [1]: 16 % free
logD (physchem): 2.1
IC50 ([2]; 18-22 hours incubation): 41 nM
solubility at 24 h [3]: 980 µM (≈ 461 µg/mL)

Structure (SMILES): C[C@@H]1Cc2c([nH]c3ccccc23)[C@@H](c2ccc(OCCNCCCF)nc2)N1CC1(F)CC1 [Example 33, 3-fluoro-N-(2-((5-((1R,3R)-2-((1-fluorocyclopropyl)methyl)-3-methyl-2,3,4,9-tetrahydro-1H-pyrido[3,4-b]indol-1-yl)pyridin-2-yl)oxy)ethyl)propan-1-amine]
Human plasma protein binding (% free) [1]: 3.0 % free
logD (physchem): 3
IC50 ([2]; 18-22 hours incubation): 3.3 nM
% downregulation [2]: (87%)
solubility at 24 h [3]: 244 µM (≈ 111 µg/mL)

Structure (SMILES): C[C@@H]1Cc2c([nH]c3ccccc23)[C@@H](c2ccc(OCCNCCCF)nc2)N1CC1(F)COC1 [Example 34, 3-fluoro-N-(2-((5-((1R,3R)-2-((3-fluorooxetan-3-yl)methyl)-3-methyl-2,3,4,9-tetrahydro-1H-pyrido[3,4-b]indol-1-yl)pyridin-2-yl)oxy)ethyl)propan-1-amine]
Human plasma protein binding (% free) [1]: 11 % free
logD (physchem): 2.5
IC50 ([2]; 18-22 hours incubation): 6.2 nM
solubility at 24 h [3]: 787 µM (≈ 370 µg/mL)

Structure (SMILES): C[C@@H]1Cc2c([nH]c3ccccc23)[C@@H](c2ncc(OCCNCCCF)cn2)N1CC(C)(C)F [Example 39, 3-fluoro-N-(2-((2-((1S,3R)-2-(2-fluoro-2-methylpropyl)-3-methyl-2,3,4,9-tetrahydro-1H-pyrido[3,4-b]indol-1-yl)pyrimidin-5-yl)oxy)ethyl)propan-1-amine]
Human plasma protein binding (% free) [1]: 7.2 % free
logD (physchem): 2.5
IC50 ([2]; 18-22 hours incubation): 230 nM
solubility at 24 h [3]: 328 µM (≈ 150 µg/mL)

Structure (SMILES): COc1cc(NCCNCCCF)ccc1[C@@H]1c2[nH]c3ccccc3c2C[C@@H](C)N1CC1(F)CC1 [Example 60, N1-(4-((1R,3R)-2-((1-fluorocyclopropyl)methyl)-3-methyl-2,3,4,9-tetrahydro-1H-pyrido[3,4-b]indol-1-yl)-3-methoxyphenyl)-N2-(3-fluoropropyl)ethane-1,2-diamine]
Human plasma protein binding (% free) [1]: 7.8 % free
logD (physchem): 2.9
IC50 ([2]; 18-22 hours incubation): 1.8 nM
solubility at 24 h [3]: 760 µM (≈ 367 µg/mL)

Structure (SMILES): C[C@@H]1Cc2c([nH]c3ccccc23)[C@@H](c2cnc(OCCNCCCF)cc2F)N1CC1(F)COC1 [Example 62, 3-fluoro-N-(2-((4-fluoro-5-((1R,3R)-2-((3-fluorooxetan-3-yl)methyl)-3-methyl-2,3,4,9-tetrahydro-1H-pyrido[3,4-b]indol-1-yl)pyridin-2-yl)oxy)ethyl)propan-1-amine]
Human plasma protein binding (% free) [1]: 13 % free
logD (physchem): 2.7
DC50 ([2]; 18-22 hours incubation, read-out: ER down regulation IC50 value): 3.9 nM
solubility at 24 h [3]: 587 µM (≈ 287 µg/mL)

Structure (SMILES): Cc1cc(OCCNCCCF)ncc1[C@@H]1c2[nH]c3ccccc3c2C[C@@H](C)N1CC(F)F [Example 63, N-(2-((5-((1R,3R)-2-(2,2-difluoroethyl)-3-methyl-2,3,4,9-tetrahydro-1H-pyrido[3,4-b]indol-1-yl)-4-methylpyridin-2-yl)oxy)ethyl)-3-fluoropropan-1-amine]
Human plasma protein binding (% free) [1]: 1.4 % free
logD (physchem): > 3.6
IC50 ([2]; 18-22 hours incubation): 1.8 nM
solubility at 24 h [3]: 268 µM (≈ 123 µg/mL)

Structure (SMILES): COc1cc(NCCNCCCF)ncc1[C@@H]1c2[nH]c3ccccc3c2C[C@@H](C)N1CC1(F)COC1 [Example 66, N1-(5-((1R,3R)-2-((3-fluorooxetan-3-yl)methyl)-3-methyl-2,3,4,9-tetrahydro-1H-pyrido[3,4-b]indol-1-yl)-4-methoxypyridin-2-yl)-N2-(3-fluoropropyl)ethane-1,2-diamine]
Human plasma protein binding (% free) [1]: 20 % free
logD (physchem): 2
IC50 ([2]; 18-22 hours incubation): 1 nM
solubility at 24 h [3]: > 1000 µM

Structure (SMILES): C[C@@H]1Cc2c([nH]c3ccccc23)[C@@H](c2cnc(OCCNCCCF)cn2)N1CC(F)F [Example 70, N-(2-((5-((1S,3R)-2-(2,2-difluoroethyl)-3-methyl-2,3,4,9-tetrahydro-1H-pyrido[3,4-b]indol-1-yl)pyrazin-2-yl)oxy)ethyl)-3-fluoropropan-1-amine]
Human plasma protein binding (% free) [1]: 11 % free
logD (physchem): 2.4
IC50 ([2]; 18-22 hours incubation): 0.88 nM
solubility at 24 h [3]: 607 µM (≈ 272 µg/mL)

Structure (SMILES): C[C@@H]1Cc2c([nH]c3ccccc23)[C@@H](c2cnc(NCCNCCCF)cn2)N1CC(F)F [Example 71, N1-(5-((1S,3R)-2-(2,2-difluoroethyl)-3-methyl-2,3,4,9-tetrahydro-1H-pyrido[3,4-b]indol-1-yl)pyrazin-2-yl)-N2-(3-fluoropropyl)ethane-1,2-diamine]
Human plasma protein binding (% free) [1]: 13 % free
logD (physchem): 2.3
IC50 ([2]; 18-22 hours incubation): 0.83 nM
solubility at 24 h [3]: > 1000 µM

Continued by falling IC50 ([2]; 18-22 hours incubation), values first:

Human plasma protein binding (% free) [1]: 0.19 % free
logD (physchem): > 3.6
IC50 ([2]; 18-22 hours incubation): 0.71 nM
% downregulation [2]: (85%)
solubility at 24 h [3]: 108 µM (≈ 53 µg/mL)
Structure (SMILES): COc1nc(OCCNCCCF)ccc1[C@@H]1c2[nH]c3ccccc3c2C[C@@H](C)N1CC(C)(F)F [Example 77, N-(2-((5-((1R,3R)-2-(2,2-difluoropropyl)-3-methyl-2,3,4,9-tetrahydro-1H-pyrido[3,4-b]indol-1-yl)-6-methoxypyridin-2-yl)oxy)ethyl)-3-fluoropropan-1-amine]

Human plasma protein binding (% free) [1]: 15 % free
logD (physchem): 2
IC50 ([2]; 18-22 hours incubation): 0.54 nM
solubility at 24 h [3]: 820 µM (≈ 392 µg/mL)
Structure (SMILES): C[C@@H]1Cc2c([nH]c3ccccc23)[C@@H](c2cnc(OCCNCCCF)cn2)N1CC(F)(F)CO [Example 69, 2,2-difluoro-3-((1S,3R)-1-(5-(2-((3-fluoropropyl)amino)ethoxy)pyrazin-2-yl)-3-methyl-1,3,4,9-tetrahydro-2H-pyrido[3,4-b]indol-2-yl)propan-1-ol]

Human plasma protein binding (% free) [1]: 8.5 % free
logD (physchem): 2.4
IC50 ([2]; 18-22 hours incubation): 0.51 nM
solubility at 24 h [3]: 877 µM (≈ 425 µg/mL)
Structure (SMILES): COc1cc(OCCNCCCF)ncc1[C@@H]1c2[nH]c3ccccc3c2C[C@@H](C)N1CC1(F)CC1 [Example 37, 3-fluoro-N-(2-((5-((1R,3R)-2-((1-fluorocyclopropyl)methyl)-3-methyl-2,3,4,9-tetrahydro-1H-pyrido[3,4-b]indol-1-yl)-4-methoxypyridin-2-yl)oxy)ethyl)propan-1-amine]

Human plasma protein binding (% free) [1]: 0.41 % free
logD (physchem): 4
IC50 ([2]; 18-22 hours incubation): 0.27 nM
solubility at 24 h [3]: 35 µM (≈ 16.1 µg/mL)
Structure (SMILES): C[C@@H]1Cc2c([nH]c3ccccc23)[C@@H](c2ccc(OCCNCCCF)cc2)N1CC(C)(F)F [Example 57, N-(2-(4-((1R,3R)-2-(2,2-difluoropropyl)-3-methyl-2,3,4,9-tetrahydro-1H-pyrido[3,4-b]indol-1-yl)phenoxy)ethyl)-3-fluoropropan-1-amine]

Human plasma protein binding (% free) [1]: 2.8 % free
logD (physchem): 2.9
IC50 ([2]; 18-22 hours incubation): 0.25 nM
solubility at 24 h [3]: 853 µM (≈ 430 µg/mL)
Structure (SMILES): COc1cc(NCCNCCCF)ccc1[C@@H]1c2[nH]c3ccccc3c2C[C@@H](C)N1CC(F)(F)CO [Example 59, 2,2-difluoro-3-((1R,3R)-1-(4-((2-((3-fluoropropyl)amino)ethyl)amino)-2-methoxyphenyl)-3-methyl-1,3,4,9-tetrahydro-2H-pyrido[3,4-b]indol-2-yl)propan-1-ol]

Human plasma protein binding (% free) [1]: 1.3 % free
logD (physchem): 3.4
IC50 ([2]; 18-22 hours incubation): 0.24 nM
solubility at 24 h [3]: 24 µM (≈ 11.4 µg/mL)
Structure (SMILES): COc1cc(NCCNCCCF)ccc1[C@@H]1c2[nH]c3ccccc3c2C[C@@H](C)N1CC(F)F [Example 61, N1-(4-((1R,3R)-2-(2,2-difluoroethyl)-3-methyl-2,3,4,9-tetrahydro-1H-pyrido[3,4-b]indol-1-yl)-3-methoxyphenyl)-N2-(3-fluoropropyl)ethane-1,2-diamine]

Human plasma protein binding (% free) [1]: 0.33 % free
logD (physchem): 3.9
IC50 ([2]; 18-22 hours incubation): 0.14 nM
solubility at 24 h [3]: 30 µM (≈ 14.7 µg/mL)
Structure (SMILES): COc1cc(OCCNCCCF)ccc1[C@@H]1c2[nH]c3ccccc3c2C[C@@H](C)N1CC(C)(F)F [Example 74, N-(2-(4-((1R,3R)-2-(2,2-difluoropropyl)-3-methyl-2,3,4,9-tetrahydro-1H-pyrido[3,4-b]indol-1-yl)-3-methoxyphenoxy)ethyl)-3-fluoropropan-1-amine]

Human plasma protein binding (% free) [1]: 0.66 % free
logD (physchem): > 3.2
IC50 ([2]; 18-22 hours incubation): 0.094 nM
solubility at 24 h [3]: 51 µM (≈ 25.2 µg/mL)
Structure (SMILES): COc1cc(OCCNCCCF)ccc1[C@@H]1c2[nH]c3ccccc3c2C[C@@H](C)N1CC(F)(F)F [Example 73, 3-fluoro-N-(2-(3-methoxy-4-((1R,3R)-3-methyl-2-(2,2,2-trifluoroethyl)-2,3,4,9-tetrahydro-1H-pyrido[3,4-b]indol-1-yl)phenoxy)ethyl)propan-1-amine]

— patent US10149839B2, “Chemical compounds” (AstraZeneca AB, priority 2016, dated 2018)
